Patent US11369565B2, “Amino-pyrimidine skeletal muscle modulators” (Cytokinetics, Inc., priority 2010, dated 2022)

The molecules below were run on rabbit skeletal myofibrils (approximately 90% fast fibers) (assay: Activation of fast skeletal myofibrils (PUMA coupled-enzyme ATPase assay at pCa25)). Conditions: concentration at which the compound increased the enzymatic activity by 40%; calcium at pCa25; PM12 buffer pH 6.8.
Assay type: biochemical
In short: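 In pH 6.8 PM12 buffer (12 mM Pipes, 2 mM MgCl2, 1 mM DTT), ADP from myosin regenerated via pyruvate kinase/lactate dehydrogenase, with absorbance change at 340 nm from NADH oxidation as read-out. Calcium set at pCa25; Triton-washed rabbit skeletal myofibrils (about 90% fast fibres) used.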

| SMILES | Mean AC1.4 |
| --- | --- |
| CC(C)(Nc1ncc(-c2nccc(C(N)=O)n2)cn1)c1ncccc1F [2-(2-{[1-(3-fluoro(2-pyridyl))-isopropyl]amino}pyrimidin-5-yl)pyrimidine-4-carboxamide] | D (D=>20 uM) |
| O=C(O)c1cnc(NC2(c3ncccc3F)CCC2)nc1C(F)(F)F [2-{[(3-fluoro(2-pyridyl))cyclobutyl]amino}-4-(trifluoromethyl)pyrimidine-5-carboxylic acid] | D (D=>20 uM) |
| CCOC(=O)c1cc2cnc(NCC3(c4ncccc4F)CCC3)nc2s1 [ethyl 2-({[(3-fluoro-2-pyridyl)cyclobutyl]methyl}amino) thiopheno[2,3-d]pyrimidine-6-carboxylate] | D (D=>20 uM) |
| CNc1nc(NC[C@]2(c3ncccc3F)C[C@H](F)C2)ncc1-c1ccccc1 [{[3-fluoro-1-(3-fluoro(2-pyridyl))cyclobutyl]methyl}[4-(methylamino)-5-phenylpyrimidin-2-yl]amine] | D (D=>20 uM) |
| NC(=O)c1ccc(O)c(-c2cnc(NCC3(c4ncccc4F)CCC3)nc2)c1 [3-[2-({[(3-fluoro(2-pyridyl))cyclobutyl]methyl}amino)pyrimidin-5-yl]-4-hydroxybenzamide] | A (A=<1 uM) |
| CC(C)[C@@H](Nc1ncc(-c2ncc(C#N)s2)cn1)c1ncccc1Cl [2-(2-{[(1R)-1-(3-chloro(2-pyridyl))-2-methylpropyl]amino}pyrimidin-5-yl)-1,3-thiazole-5-carbonitrile] | D (D=>20 uM) |
| O=C1NCc2cccc(-c3cnc(NC[C@]4(c5ncccc5F)C[C@H](F)C4)nc3)c21 [7-[2-({[3-fluoro-1-(3-fluoro(2-pyridyl))cyclobutyl]methyl}amino)pyrimidin-5-yl]isoindolin-1-one] | B (B=1-10 uM) |
| CNC(=O)c1cccc(-c2cnc(NCC3(c4ncccc4F)CCC3)nc2)c1 [{3-[2-({[(3-fluoro(2-pyridyl))cyclobutyl]methyl)amino)pyrimidin-5-yl]phenyl}-N-methylcarboxamide] | B (B=1-10 uM) |
| CC(C)(Nc1ncc(-c2ncc(CNC(=O)c3cnc[nH]3)s2)cn1)c1ncccc1F [N-{[2-(2-{[1-(3-fluoro(2-pyridyl))-isopropyl]amino}pyrimidin-5-yl)(1,3-thiazol-5-yl)]methyl}imidazol-5-ylcarboxamide] | D (D=>20 uM) |
| CNC(=O)c1ccc(F)c(-c2cnc(NCC3(c4ncccc4F)CCC3)nc2)c1 [{4-fluoro-3-[2-({[(3-fluoro(2-pyridyl))cyclobutyl]methyl}amino)pyrimidin-5-yl]phenyl}-N-methylcarboxamide] | B (B=1-10 uM) |
| CC(C)(Nc1ncc(-c2cc(C(N)=O)ccc2F)cn1)c1ncccc1C(F)F [3-[2-({1-[3-(difluoromethyl)(2-pyridyl)]-isopropyl)amino)pyrimidin-5-yl]-4-fluorobenzamide] | B (B=1-10 uM) |
| CSc1cccnc1C(C)(C)Nc1ncc(-c2cccc(C#N)c2)cn1 [3-(2-{[1-methyl-1-(3-methylthio(2-pyridyl))ethyl]amino}pyrimidin-5-yl)benzenecarbonitrile] | B (B=1-10 uM) |
| CC(C)(Nc1ncc(-c2noc(C(N)=O)n2)cn1)c1ncccc1Cl [3-(2-{[1-(3-chloro(2-pyridyl))-isopropyl]amino}pyrimidin-5-yl)-1,2,4-oxadiazole-5-carboxamide] | D (D=>20 uM) |
| CC(C)(Nc1ncc(-c2cccc(C(N)=O)c2)cn1)c1ncccc1S(C)(=O)=O [3-[2-({1-methyl-1-[3-(methylsulfonyl)(2-pyridyl)]ethyl}amino)pyrimidin-5-yl]benzamide] | D (D=>20 uM) |
| CC(=O)N1CCc2nc(NCC(C)(C)c3ccc(F)cc3)ncc2C1 [6-acetyl-2-{[2-(4-fluorophenyl)-2-methylpropyl]amino}-5,6,7,8-tetrahydropyridino[4,3-d]pyrimidine] | D (D=>20 uM) |
| CC(C)(CNc1ncc(-c2cccc(C(N)=O)c2)cn1)c1ncccc1F [3-(2-{[2-(3-fluoro(2-pyridyl))-2-methylpropyl]amino}pyrimidin-5-yl)benzamide] | B (B=1-10 uM) |
| CCOC(=O)c1nnc(-c2cnc(NC(C)(C)c3ncccc3Cl)nc2)o1 [ethyl 5-(2-{[1-(3-chloro(2-pyridyl))-isopropyl]amino}pyrimidin-5-yl)-1,3,4-oxadiazole-2-carboxylate] | D (D=>20 uM) |
| CC(C)(Nc1ncc(-c2cnc3cc[nH]c3c2)cn1)c1ncccc1Cl [[1-(3-chloro(2-pyridyl))-isopropyl](5-pyrrolo[3,2-b]pyridin-6-ylpyrimidin-2-yl)amine] | A (A=<1 uM) |
| CC(C)(Nc1ncc(-n2cc(C(=O)O)cn2)cn1)c1ncccc1Cl [1-(2-{[1-(3-chloro(2-pyridyl))-isopropyl]amino}pyrimidin-5-yl)pyrazole-4-carboxylic acid] | D (D=>20 uM) |

| SMILES | Mean AC1.4 |
| --- | --- |
| CCOC(=O)c1cnn(-c2cnc(NCC3(c4ncccc4F)CCC3)nc2)c1 [ethyl 1-[2-({[(3-fluoro-2-pyridyl)cyclobutyl]methyl}amino)pyrimidin-5-yl] pyrazole-4-carboxylate] | D (D=>20 uM) |
| CC(C)(Nc1ncc(-c2cn3ccc(C(N)=O)cc3n2)cn1)c1ncccc1Cl [2-(2-{[1-(3-chloro(2-pyridyl))-isopropyl]amino}pyrimidin-5-yl)-4-hydroimidazo[1,2-a]pyridine-7-carboxamide] | D (D=>20 uM) |
| O=C(O)CNC(=O)c1cnc(NCC2(c3ncccc3F)CCC2)nc1 [2-{[2-({[(3-fluoro-2-pyridyl)cyclobutyl]methyl}amino)pyrimidin-5-yl]carbonylamino} acetic acid] | D (D=>20 uM) |
| CNC(=O)c1cccc(-c2cnc(NC[C@]3(c4ncccc4F)C[C@H](F)C3)nc2)c1O [{3-[2-({[3-fluoro-1-(3-fluoro(2-pyridyl))cyclobutyl]methyl}amino)pyrimidin-5-yl]-2-hydroxyphenyl}-N-methylcarboxamide] | B (B=1-10 uM) |
| O=C(Nc1ccn[nH]1)c1cnc(NCC2(c3ncccc3F)CCC2)nc1 [[2-({[(3-fluoro(2-pyridyl))cyclobutyl]methyl}amino)pyrimidin-5-yl]-N-pyrazol-5-ylcarboxamide] | C (C=10-20 uM) |
| NC(=O)c1cccc(-c2cnc(NC[C@]3(c4ncccc4F)C[C@H](F)C3)nc2O)c1 [3-[2-({[3-fluoro-1-(3-fluoro(2-pyridyl))cyclobutyl]methyl}amino)-4-hydroxypyrimidin-5-yl]benzamide] | B (B=1-10 uM) |
| CC(C)(C)OC(=O)NCc1cnc(-c2cnc(NCC3(c4ncccc4F)CCC3)nc2)s1 [(tert-butoxy)-N-({2-[2-({[(3-fluoro(2-pyridyl))cyclobutyl]methyl}amino)pyrimidin-5-yl](1,3-thiazol-5-yl)}methyl)carboxamide] | B (B=1-10 uM) |
| CC(C)(Nc1ncc(-n2cc(C(=O)NCCC(N)=O)cn2)cn1)c1ncccc1Cl [N-(2-carbamoylethyl)[1-(2-{[1-(3-chloro)(2-pyridyl))-isopropyl]amino}pyrimidin-5-yl)pyrazol-4-yl]carboxamide] | D (D=>20 uM) |
| CC(C)(Nc1ncc(-c2ncc(CNC(=O)[C@H]3CCCN3)s2)cn1)c1ncccc1F [((2R)pyrrolidin1-2-yl)-N-{[2-(2-{[1-(3-fluoro(2-pyridyl))-isopropyl]amino}pyrimidin-5-yl)(1,3-thiazol-5-yl)]methyl}carboxamide] | D (D=>20 uM) |
| CC(C)(O)C(=O)NCc1cnc(-c2cnc(NC(C)(C)c3ncccc3Cl)nc2)s1 [N-{[2-(2-{[1-(3-chloro(2-pyridyl))-isopropyl}amino}pyrimidin-5-yl)(1,3-thiazol-5-yl)]methyl]-2-hydroxy-2-methylpropanamide] | C (C=10-20 uM) |
| CC(C)(Nc1nccc(-c2nccs2)n1)c1ncccc1Cl [[1-(3-chloro(2-pyridyl))-isopropyl](4-(1,3-thiazol-2-yl)pyrimidin-2-yl)amine] | D (D=>20 uM) |
| Clc1cccnc1C1(CNc2ncccn2)CCC1 [{[(3-chloro(2-pyridyl))cyclobutyl]methyl}pyrimidin-2-ylamine] | D (D=>20 uM) |
| COc1cc(-c2cnc(NC[C@]3(c4ncccc4F)C[C@H](F)C3)nc2)nc(OC)n1 [[5-(2,6-dimethoxypyrimidin-4-yl)pyrimidin-2-yl]{[3-fluoro-1-(3-fluoro(2-pyridyl))cyclobutyl]methyl}amine] | D (D=>20 uM) |
| COc1ccc(-c2cnc(NC[C@]3(c4ncccc4F)C[C@H](F)C3)nc2)nn1 [{[3-fluoro-1-(3-fluoro(2-pyridyl))cyclobutyl]methyl}[5-(6-methoxypyridazin-3-yl)]pyrimidin-2-yl]amine] | D (D=>20 uM) |
| CC(C)(Nc1ncc(-c2cnn(CC(=O)O)c2)cn1)c1ncccc1Cl [2-[4-(2-{[1-(3-chloro(2-pyridyl))-isopropyl]amino}pyrimidin-5-yl)pyrazolyl]acetic acid] | D (D=>20 uM) |
| CC(C)(Nc1ncc(-c2cccc(C(N)=O)c2)cn1)c1ncccc1F [3-(2-{[1-(3-fluoro(2-pyridyl))-isopropyl]amino}pyrimidin-5-yl)benzamide] | B (B=1-10 uM) |
| Fc1cccnc1C1(Nc2ncc(Br)cn2)CCC1 [(5-bromopyrimidin-2-yl)[(3-fluoro(2-pyridyl))cyclobutyl]amine] | D (D=>20 uM) |
| CC(C)(CNc1ncc2c(n1)CN(S(C)(=O)=O)CC2)c1ccc(F)cc1 [2-{[2-(4-fluorophenyl)-2-methylpropyl]amino}-7-(methylsulfonyl)-5,6,7,8-tetrahydropyridino[3,4-d]pyrimidine] | C (C=10-20 uM) |
